Data: article PMC6222329 (Molecules : A Journal of Synthetic Chemistry and Natural …, 2018)

Assays:
[1] = target: T1, AChE (Electrophorus electricus) (Electrophorus electricus, UniProt O42275); assay: AChE inhibition, Ellman's method; type: biochemical
T1 construct: purchased Sigma-Aldrich (Steinheim, Germany)
Experimental: (§1) The assay was performed in two steps.
(§2) All enzymes were obtained from Sigma-Aldrich (Steinheim, Germany). Ellman’s reagent and the substrates were obtained from Fluka (Buchs, Switzerland). The chemicals used to prepare the buffer solution were purchased from Merck (Darmstadt, Germany).
(§3) The enzyme inhibitory activities of the synthesized compounds were investigated by applying Ellman’s method. Enzyme solutions were dissolved in gelatin solution (1%; 2.5 units/mL). […] Then, the reaction was initiated by the addition of Ellman’s reagent 5,5′-Dithiobis(2-nitrobenzoic acid) (DTNB; 20 µL/well, 10 mM) and the substrate (10 µL/well, 75 mM). […] The enzyme solution was processed as a control. All readings were adjusted with blank-reading. All assays were performed in four independent wells. […] Absorbance differences between the two readings were taken, and percentage inhibition rates were calculated according to the following formula: % Inhibition=[(A(C)−A(B))−(A(I)−A(B))]/(A(C)−A(B))×100.
(§4) • Blank (B): the well in which the inhibitor compound and substrate were not added; • Control (C): the well where the inhibitor compound was not added; • A(B): the difference in absorbance reading for the blank; • A(C): the difference in absorbance reading for the control; • A(I): the difference in absorbance reading for the inhibitor compounds.

AChE (Human) = target: T2, AChE (Human) (Homo sapiens, UniProt P22303); assay: AChE inhibition, Ellman's method; type: biochemical
T2 construct: purchased Sigma-Aldrich (Steinheim, Germany)
T2 sequence (P22303 32-614): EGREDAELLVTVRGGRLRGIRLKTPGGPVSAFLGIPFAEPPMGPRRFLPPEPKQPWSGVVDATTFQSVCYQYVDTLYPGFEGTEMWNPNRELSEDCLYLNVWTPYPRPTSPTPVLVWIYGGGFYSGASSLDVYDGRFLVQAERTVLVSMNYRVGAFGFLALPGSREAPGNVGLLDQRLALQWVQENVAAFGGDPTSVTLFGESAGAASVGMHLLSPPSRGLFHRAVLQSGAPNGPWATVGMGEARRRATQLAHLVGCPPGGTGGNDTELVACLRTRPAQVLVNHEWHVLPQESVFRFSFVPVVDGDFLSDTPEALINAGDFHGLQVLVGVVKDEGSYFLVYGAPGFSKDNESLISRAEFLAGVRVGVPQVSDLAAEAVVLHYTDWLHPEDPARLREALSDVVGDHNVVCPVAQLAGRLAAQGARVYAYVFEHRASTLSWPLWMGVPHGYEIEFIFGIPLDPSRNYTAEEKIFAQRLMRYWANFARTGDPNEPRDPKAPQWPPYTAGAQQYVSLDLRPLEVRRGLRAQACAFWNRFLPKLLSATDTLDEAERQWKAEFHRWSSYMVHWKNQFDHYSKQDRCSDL
Experimental: as §1, §2, §3, §4

BChE (Equine) = target: T3, BChE (Equine) (Equus caballus, UniProt P81908); assay: biochemical; type: biochemical
T3 construct: purchased Sigma-Aldrich (Steinheim, Germany)
T3 sequence (P81908 whole entry): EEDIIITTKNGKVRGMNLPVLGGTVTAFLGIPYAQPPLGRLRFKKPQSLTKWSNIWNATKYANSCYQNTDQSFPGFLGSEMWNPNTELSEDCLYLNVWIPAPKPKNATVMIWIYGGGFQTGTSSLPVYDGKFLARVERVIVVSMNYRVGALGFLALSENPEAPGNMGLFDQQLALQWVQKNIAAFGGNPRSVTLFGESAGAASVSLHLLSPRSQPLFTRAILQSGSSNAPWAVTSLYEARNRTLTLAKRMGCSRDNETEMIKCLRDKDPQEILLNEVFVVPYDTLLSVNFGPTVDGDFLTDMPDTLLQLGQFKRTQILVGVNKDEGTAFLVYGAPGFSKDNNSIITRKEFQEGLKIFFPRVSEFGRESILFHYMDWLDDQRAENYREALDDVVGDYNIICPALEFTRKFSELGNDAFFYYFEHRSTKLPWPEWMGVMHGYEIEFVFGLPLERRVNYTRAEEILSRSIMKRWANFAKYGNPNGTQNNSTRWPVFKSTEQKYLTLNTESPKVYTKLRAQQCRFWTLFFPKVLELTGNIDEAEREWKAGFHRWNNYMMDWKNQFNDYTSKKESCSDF
Experimental: as §1, §2, §3, §4

BChE (Human) = target: T4, BChE (Human) (Homo sapiens, UniProt P06276); assay: BChE inhibition, Ellman's method; type: biochemical; conditions: for IC50: read-out: BChE (Human) IC50
T4 construct: purchased Sigma-Aldrich (Steinheim, Germany)
T4 sequence (P06276 29-602): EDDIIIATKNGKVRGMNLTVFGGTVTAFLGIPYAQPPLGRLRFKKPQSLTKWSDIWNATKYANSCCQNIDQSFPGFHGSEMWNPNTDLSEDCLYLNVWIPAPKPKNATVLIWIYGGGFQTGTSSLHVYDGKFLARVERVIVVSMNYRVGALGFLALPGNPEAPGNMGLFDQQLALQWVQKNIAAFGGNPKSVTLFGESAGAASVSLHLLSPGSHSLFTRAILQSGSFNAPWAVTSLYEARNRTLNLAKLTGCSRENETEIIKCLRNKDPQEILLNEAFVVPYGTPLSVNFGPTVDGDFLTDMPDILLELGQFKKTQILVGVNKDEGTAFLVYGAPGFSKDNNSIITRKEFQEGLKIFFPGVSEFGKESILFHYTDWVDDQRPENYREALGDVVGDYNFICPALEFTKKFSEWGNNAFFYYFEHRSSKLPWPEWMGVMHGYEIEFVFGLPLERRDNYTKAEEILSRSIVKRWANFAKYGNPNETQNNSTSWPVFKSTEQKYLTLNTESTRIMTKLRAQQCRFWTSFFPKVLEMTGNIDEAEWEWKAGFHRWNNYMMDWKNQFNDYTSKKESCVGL
Experimental: as §1, §2, §3, §4

[2] = system: murine fibroblast healthy cell line (NIH3T3); assay: MTT cell viability assay; type: cell-based; conditions: 24 h, 0.000316 µM to 1000 µM, read-out: IC50 against NIH3T3
Experimental: The active compounds (4a, 4b, 4e, 4i, 4m, 4n, 4o, and 4t) were chosen to determine their cytotoxic activity toward a murine fibroblast healthy cell line (NIH3T3). After incubating the cells with active compounds at concentrations of 0.000316 µM to1000 µM for 24 h, the cell viability was measured using the 3-(4,5-dimethylthiazol-2-yl)-2,5-diphenyltetrazolium (MTT) assay. The inhibition percentage was calculated for each concentration of the test compounds. The IC50 values of the compounds were determined using a non-linear regression analysis over the calculated percentage inhibition values, and they are presented in Table 2. Accordingly, the cytotoxicity test proposed that the active derivatives were nontoxic against NIH3T3 cells at their active concentrations against BChE.
Healthy murine embryonic fibroblast cells (NIH3T3 cell line) were used for the cytotoxicity tests. The cell line and selected compounds were prepared for an MTT assay as reported previously. The optical densities (OD) of 96 well plates were recorded at 540 nm. […]

T1 sequence (O42275 24-633): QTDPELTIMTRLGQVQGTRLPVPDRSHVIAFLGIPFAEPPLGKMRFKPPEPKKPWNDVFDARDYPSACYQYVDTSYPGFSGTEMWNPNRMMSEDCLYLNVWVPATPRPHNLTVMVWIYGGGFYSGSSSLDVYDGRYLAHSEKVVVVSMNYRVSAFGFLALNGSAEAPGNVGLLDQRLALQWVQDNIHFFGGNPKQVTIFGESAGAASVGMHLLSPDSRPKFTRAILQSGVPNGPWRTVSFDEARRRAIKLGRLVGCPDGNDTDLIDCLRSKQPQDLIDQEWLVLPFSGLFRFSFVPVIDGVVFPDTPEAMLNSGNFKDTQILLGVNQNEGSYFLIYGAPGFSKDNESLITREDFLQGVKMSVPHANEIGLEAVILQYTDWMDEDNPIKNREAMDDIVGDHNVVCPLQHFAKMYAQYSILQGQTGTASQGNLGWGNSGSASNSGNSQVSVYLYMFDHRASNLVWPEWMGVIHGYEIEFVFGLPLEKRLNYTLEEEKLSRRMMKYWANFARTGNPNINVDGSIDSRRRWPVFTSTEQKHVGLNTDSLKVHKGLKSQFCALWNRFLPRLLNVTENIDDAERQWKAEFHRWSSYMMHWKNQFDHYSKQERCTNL

Compound	AChE (Electrophorus electricus) inhibitory activity (%) ± SD ([1]; 10^-3 M)	AChE (Electrophorus electricus) inhibitory activity (%) ± SD ([1]; 10^-4 M)	AChE (Human) inhibitory activity (%) ± SD (AChE (Human); 10^-3 M)	AChE (Human) inhibitory activity (%) ± SD (AChE (Human); 10^-4 M)	IC50 (BChE (Equine))	BChE (Equine) inhibitory activity (%) ± SD (BChE (Equine); 10^-3 M)	BChE (Equine) inhibitory activity (%) ± SD (BChE (Equine); 10^-4 M)	BChE (Equine) inhibitory activity (%) ± SD (BChE (Equine); 10^-5 M)	BChE (Equine) inhibitory activity (%) ± SD (BChE (Equine); 10^-6 M)	BChE (Equine) inhibitory activity (%) ± SD (BChE (Equine); 10^-7 M)	BChE (Equine) inhibitory activity (%) ± SD (BChE (Equine); 10^-8 M)	BChE (Equine) inhibitory activity (%) ± SD (BChE (Equine); 10^-9 M)	BChE (Human) inhibitory activity (%) ± SD (BChE (Human); 10^-3 M)	BChE (Human) inhibitory activity (%) ± SD (BChE (Human); 10^-4 M)	BChE (Human) inhibitory activity (%) ± SD (BChE (Human); 10^-5 M)	BChE (Human) inhibitory activity (%) ± SD (BChE (Human); 10^-6 M)	BChE (Human) inhibitory activity (%) ± SD (BChE (Human); 10^-7 M)	BChE (Human) inhibitory activity (%) ± SD (BChE (Human); 10^-8 M)	BChE (Human) inhibitory activity (%) ± SD (BChE (Human); 10^-9 M)	IC50 (BChE (Human))	other results
CN(C)CCN1CCN(C(=S)SCC(=O)Nc2c3ccccc3nc3ccccc23)CC1 [Compound 4a, 2-(9-Acridinylamino)-2-oxoethyl 4-(2-(dimethylamino)ethyl)piperazine-1-carbodithioate]	60.13±1.54%	17.03 ± 0.48%	62.20±1.05%	18.15 ± 0.51%	226 ± 8 nM	99.13±3.21%	* 91.13 ± 2.94%	84.80±2.76%	52.10±1.04%	39.90±0.81%	28.24±0.54%	19.69±0.99%	98.50±2.46%	* 93.25 ± 2.24%	86.20±1.46%	55.00±1.11%	36.21±0.97%	30.20±0.68%	15.79±0.81%	243 ± 9 nM	IC50 [2]: 26800 nM
CN(C)CCCN1CCN(C(=S)SCC(=O)Nc2c3ccccc3nc3ccccc23)CC1 [Compound 4b, 2-(9-Acridinylamino)-2-oxoethyl 4-(3-(dimethylamino)propyl)piperazine-1-carbodithioate]	79.95±1.78%	32.41 ± 1.01%	75.66±1.17%	35.49 ± 1.00%	264 ± 12 nM	98.16±3.11%	* 82.50 ± 2.07%	70.30 ±1.80%	46.10±0.74%	41.80±0.81%	33.04±0.78%	26.35±0.77%	97.55±2.05%	* 84.18 ± 2.21%	72.99 ±1.35%	45.26±0.85%	40.87±0.67%	35.28±0.53%	28.74±0.50%	222 ± 10 nM	IC50 [2]: 25600 nM
O=C(CSC(=S)N1CCN(c2ccc(F)cc2)CC1)Nc1c2ccccc2nc2ccccc12 [Compound 4p, 2-(9-Acridinylamino)-2-oxoethyl 4-(4-fluorophenyl)piperazine-1-carbodithioate]	98.66±2.98%	48.40 ± 1.18%	96.90±2.17%	49.51 ± 1.50%	–	93.27±3.07%	48.65 ± 1.14%	–	–	–	–	–	92.55±2.51%	40.71 ± 1.08%	–	–	–	–	–	–	–
O=C(CSC(=S)N1CCN(C(=O)c2ccco2)CC1)Nc1c2ccccc2nc2ccccc12 [Compound 4q, 2-(9-Acridinylamino)-2-oxoethyl 4-(furan-2-carbonyl)piperazine-1-carbodithioate]	68.60±1.57%	16.35 ± 0.39%	70.29±1.18%	20.28 ± 0.51%	–	92.00±3.44%	39.90 ± 1.36%	–	–	–	–	–	95.29±2.16%	42.48 ± 1.22%	–	–	–	–	–	–	–
O=C(CSC(=S)N1CCOCC1)Nc1c2ccccc2nc2ccccc12 [Compound 4r, 2-(9-Acridinylamino)-2-oxoethyl morpholine-4-carbodithioate]	68.20±1.69%	37.33 ± 1.03%	64.93±1.21%	40.70 ± 1.00%	–	91.26±3.42%	45.30 ± 1.88%	–	–	–	–	–	94.18±2.62%	43.29 ± 1.17%	–	–	–	–	–	–	–
O=C(CSC(=S)N1CCCCC1)Nc1c2ccccc2nc2ccccc12 [Compound 4s, 2-(9-Acridinylamino)-2-oxoethyl piperidine-1-carbodithioate]	44.51±0.96%	32.17 ± 1.23%	49.05±0.88%	35.20 ± 1.12%	–	86.72±3.07%	38.40 ± 0.74%	–	–	–	–	–	84.27±2.16%	34.99 ± 0.63%	–	–	–	–	–	–	–
CC1CCCCN1C(=S)SCC(=O)Nc1c2ccccc2nc2ccccc12 (stereo not drawn) [Compound 4t, 2-(9-Acridinylamino)-2-oxoethyl 2-methylpiperidine-1-carbodithioate]	81.22±2.77%	15.94 ± 0.42%	85.44±1.72%	14.51 ± 0.44%	1520 ± 72 nM	96.06±3.61%	* 55.00 ± 1.74%	49.04±0.68%	41.33±0.41%	35.75±0.53%	30.66±0.59%	28.50±0.66%	97.28±3.00%	* 54.26 ± 1.27%	48.19±1.08%	38.35±0.88%	36.47±0.60%	32.40±0.57%	29.77±0.41%	1610 ± 62 nM	–
O=C(CSC(=S)N1CCC(Cc2ccccc2)CC1)Nc1c2ccccc2nc2ccccc12 [Compound 4u, 2-(9-Acridinylamino)-2-Oxoethyl 4-Benzylpiperidine-1-Carbodithioate]	69.30±1.28%	25.88 ± 0.74%	65.77±1.17%	30.71 ± 0.52%	–	32.20±0.59%	29.50 ± 0.48%	–	–	–	–	–	38.33±0.87%	31.21 ± 0.50%	–	–	–	–	–	–	–
